In brackets after ≈: the same amount, converted by molar mass.
Columns and labels:
Sus scrofa [1] = species: Sus scrofa; experiment: Inhibition of porcine pepsin activity assessed as hydrolysis of 0.5% hemoglobin solution substrate after 1 hr
Sus scrofa [2] = species: Sus scrofa; experiment: Inhibition of porcine pepsin activity assessed as hydrolysis of N-Cbz-L-Pheylalanyl-L-Tyrosine substrate

| SMILES | ID50 (Sus scrofa [1]) [µg/mL] | ID50 (Sus scrofa [2]) [µg/mL] |
| --- | --- | --- |
| CC(C)C[C@H](NC(=O)[C@@H](NC(=O)[C@@H](NC(=O)OCc1ccccc1)C(C)C)C(C)C)[C@H](O)CC(=O)O | 21 (≈ 41.4 µM) | 12 (≈ 23.6 µM) |
| CC(C)C[C@@H](NC(=O)[C@@H](NC(=O)[C@@H](NC(=O)OCc1ccccc1)C(C)C)C(C)C)[C@@H](O)CC(=O)O | 224 (≈ 441 µM) | 219 (≈ 431 µM) |
| CC(C)C[C@@H](NC(=O)[C@@H](NC(=O)[C@@H](NC(=O)OCc1ccccc1)C(C)C)C(C)C)[C@H](O)CC(=O)O | 18 (≈ 35.5 µM) | 42 (≈ 82.7 µM) |
| CC(C)C[C@H](NC(=O)[C@@H](NC(=O)[C@@H](NC(=O)OCc1ccccc1)C(C)C)C(C)C)[C@@H](O)CC(=O)O | 0.1 (≈ 0.197 µM) | 1 (≈ 1.97 µM) |
| CC(C)CC(=O)N[C@H](C(=O)N[C@H](C(=O)N[C@@H](CC(C)C)[C@@H](O)CC(=O)N[C@@H](C)C(=O)N[C@@H](CC(C)C)[C@@H](O)CC(=O)O)C(C)C)C(C)C | 0.0052 (≈ 0.00758 µM) | 2 (≈ 2.92 µM) |

— ChEMBL document CHEMBL3227945, “Synthesis of all the stereoisomers of statine (4-amino-3-hydroxy-6-methylheptanoic acid). Inhibition of pepsin activity by N-carbobenzoxy-L-valyl-L-valyl-statine derived from the four stereoisomers” (J Med Chem, 1979)
